Reference: publication PMC7180948, “New Insights into 4-Anilinoquinazolines as Inhibitors of Cardiac Troponin I–Interacting Kinase (TNNi3K)” (Molecules, 2020)

Experiments:
Test in all cases: biochemical
Set-up in all cases: KINOMEscan competition binding panel (Eurofins DiscoverX), single concentration, percent inhibition
Settings in all cases: read-out: 15 at 1 µM % inhibition
[1] = target: SIK2 (Homo sapiens, UniProt Q9H0K1)
Summary of the method: (§1)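 A single 1 µM concentration of each compound is screened across upwards of 400 human kinases using the KINOMEscan format.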

[2] = target: T1, MEK3 (Homo sapiens, UniProt P46734)
T1 construct: gene MAP2K3
Summary of the method: as §1

[3] = target: PIK3CA(C420R) (Homo sapiens, UniProt P42336, C420R)
PIK3CA(C420R), sequence (P42336 whole entry C420R): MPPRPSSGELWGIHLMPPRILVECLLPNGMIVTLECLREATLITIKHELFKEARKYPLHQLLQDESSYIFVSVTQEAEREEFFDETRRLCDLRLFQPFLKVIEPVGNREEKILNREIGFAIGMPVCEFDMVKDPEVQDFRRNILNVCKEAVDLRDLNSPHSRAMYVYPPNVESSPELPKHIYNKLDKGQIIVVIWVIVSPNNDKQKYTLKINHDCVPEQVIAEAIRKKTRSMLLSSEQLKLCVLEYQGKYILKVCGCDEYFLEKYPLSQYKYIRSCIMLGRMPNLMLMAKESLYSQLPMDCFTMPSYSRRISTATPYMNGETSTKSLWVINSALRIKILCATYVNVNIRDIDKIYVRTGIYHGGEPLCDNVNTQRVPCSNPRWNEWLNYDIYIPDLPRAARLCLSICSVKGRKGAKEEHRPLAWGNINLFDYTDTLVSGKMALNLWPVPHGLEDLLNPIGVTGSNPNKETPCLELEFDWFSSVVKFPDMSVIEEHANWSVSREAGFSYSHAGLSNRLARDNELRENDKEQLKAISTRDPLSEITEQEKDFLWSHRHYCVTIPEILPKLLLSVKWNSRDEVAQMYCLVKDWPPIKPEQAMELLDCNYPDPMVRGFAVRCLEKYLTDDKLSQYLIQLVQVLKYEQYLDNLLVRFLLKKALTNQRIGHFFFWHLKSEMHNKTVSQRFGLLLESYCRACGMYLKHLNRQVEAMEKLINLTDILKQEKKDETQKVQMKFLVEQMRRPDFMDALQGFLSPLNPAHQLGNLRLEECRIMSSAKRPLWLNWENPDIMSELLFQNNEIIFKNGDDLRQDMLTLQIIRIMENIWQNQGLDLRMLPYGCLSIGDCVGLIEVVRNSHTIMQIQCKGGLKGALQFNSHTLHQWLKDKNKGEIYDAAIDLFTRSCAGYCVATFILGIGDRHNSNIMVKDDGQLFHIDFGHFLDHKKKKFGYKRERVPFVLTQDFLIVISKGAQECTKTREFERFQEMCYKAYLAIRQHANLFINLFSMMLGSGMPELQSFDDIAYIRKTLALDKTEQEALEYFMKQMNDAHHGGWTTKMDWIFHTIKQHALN
Summary of the method: as §1

[4] = target: T2, SgK110 (Homo sapiens, UniProt P0C264)
T2 construct: gene SBK3
T2 sequence (P0C264 whole entry): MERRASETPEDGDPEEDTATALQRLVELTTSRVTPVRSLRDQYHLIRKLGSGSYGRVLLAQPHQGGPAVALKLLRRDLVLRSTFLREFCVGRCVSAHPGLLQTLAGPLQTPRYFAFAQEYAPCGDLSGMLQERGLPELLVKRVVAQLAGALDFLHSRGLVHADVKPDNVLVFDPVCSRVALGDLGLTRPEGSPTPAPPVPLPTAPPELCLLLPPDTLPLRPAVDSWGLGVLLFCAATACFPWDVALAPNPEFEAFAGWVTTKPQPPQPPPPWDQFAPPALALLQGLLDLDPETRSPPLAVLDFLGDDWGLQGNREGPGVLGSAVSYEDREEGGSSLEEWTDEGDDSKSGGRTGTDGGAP
Summary of the method: as §1

[5] = target: ACVR2B (Homo sapiens, UniProt Q13705)
Summary of the method: as §1

[6] = target: IRAK4 (Homo sapiens, UniProt Q9NWZ3)
Summary of the method: as §1

[7] = target: DAPK2 (Homo sapiens, UniProt Q9UIK4)
Summary of the method: as §1

[8] = target: MAPKAPK5 (Homo sapiens, UniProt Q8IW41)
Summary of the method: as §1

[9] = target: T3, CTK (Homo sapiens, UniProt P42679)
T3 construct: gene MATK
Summary of the method: as §1

[10] = target: BTK (Homo sapiens, UniProt Q06187)
Summary of the method: as §1

[11] = target: HIPK1 (Homo sapiens, UniProt Q86Z02)
Summary of the method: as §1

[12] = target: AKT2 (Homo sapiens, UniProt P31751)
AKT2, sequence (P31751 whole entry): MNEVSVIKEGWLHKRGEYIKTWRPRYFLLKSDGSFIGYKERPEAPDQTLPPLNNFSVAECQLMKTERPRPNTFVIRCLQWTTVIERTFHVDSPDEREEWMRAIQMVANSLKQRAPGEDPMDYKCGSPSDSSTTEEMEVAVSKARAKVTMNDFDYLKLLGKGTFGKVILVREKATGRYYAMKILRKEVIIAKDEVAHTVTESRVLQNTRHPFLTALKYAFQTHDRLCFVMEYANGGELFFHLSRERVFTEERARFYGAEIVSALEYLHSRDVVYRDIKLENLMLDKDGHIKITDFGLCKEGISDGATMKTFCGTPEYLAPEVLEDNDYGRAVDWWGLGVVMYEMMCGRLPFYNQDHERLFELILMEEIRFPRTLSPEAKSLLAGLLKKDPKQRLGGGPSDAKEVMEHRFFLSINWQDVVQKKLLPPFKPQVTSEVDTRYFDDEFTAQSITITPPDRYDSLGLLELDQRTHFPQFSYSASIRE
Summary of the method: as §1

[13] = target: T4, ABL1(F317L)-nonphosphorylated (Homo sapiens, UniProt P00519, F317L)
T4 construct: nonphosphorylated
Summary of the method: as §1

[14] = target: T5, JAK1(JH2domain-pseudokinase) (Homo sapiens, UniProt P23458)
T5 construct: JH2domain-pseudokinase
T5 sequence (P23458 whole entry): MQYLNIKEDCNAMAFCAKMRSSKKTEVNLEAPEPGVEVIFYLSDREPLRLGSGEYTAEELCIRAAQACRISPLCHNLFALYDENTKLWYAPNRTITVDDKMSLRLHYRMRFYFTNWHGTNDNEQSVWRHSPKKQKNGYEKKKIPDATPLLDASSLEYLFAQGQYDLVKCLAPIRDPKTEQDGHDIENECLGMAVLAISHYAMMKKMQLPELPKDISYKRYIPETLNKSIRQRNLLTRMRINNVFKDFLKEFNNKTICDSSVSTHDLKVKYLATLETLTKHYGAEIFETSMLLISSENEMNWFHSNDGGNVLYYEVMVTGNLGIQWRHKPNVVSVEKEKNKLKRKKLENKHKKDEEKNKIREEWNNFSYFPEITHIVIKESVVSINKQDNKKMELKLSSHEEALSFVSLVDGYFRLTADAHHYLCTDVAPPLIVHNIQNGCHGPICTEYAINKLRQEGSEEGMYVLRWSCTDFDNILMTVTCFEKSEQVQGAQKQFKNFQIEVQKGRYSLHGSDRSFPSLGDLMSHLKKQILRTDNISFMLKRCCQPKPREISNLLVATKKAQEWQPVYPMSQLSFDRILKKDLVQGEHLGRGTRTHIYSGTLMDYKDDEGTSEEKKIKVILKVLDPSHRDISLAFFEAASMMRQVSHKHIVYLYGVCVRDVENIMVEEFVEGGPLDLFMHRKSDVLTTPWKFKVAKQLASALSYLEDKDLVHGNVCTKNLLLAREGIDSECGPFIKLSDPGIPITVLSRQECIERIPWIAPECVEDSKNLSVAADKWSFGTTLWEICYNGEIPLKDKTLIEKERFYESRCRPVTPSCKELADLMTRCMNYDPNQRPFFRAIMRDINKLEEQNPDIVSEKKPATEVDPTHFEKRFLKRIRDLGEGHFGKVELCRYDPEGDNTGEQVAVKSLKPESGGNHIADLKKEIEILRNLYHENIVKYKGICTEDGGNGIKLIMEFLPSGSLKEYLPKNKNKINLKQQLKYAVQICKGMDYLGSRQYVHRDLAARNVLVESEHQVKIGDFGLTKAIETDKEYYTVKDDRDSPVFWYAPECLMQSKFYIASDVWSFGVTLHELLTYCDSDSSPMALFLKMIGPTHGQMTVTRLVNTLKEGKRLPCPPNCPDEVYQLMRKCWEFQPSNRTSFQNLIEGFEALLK
Summary of the method: as §1

[15] = target: NEK4 (Homo sapiens, UniProt P51957)
Summary of the method: as §1

[16] = target: T6, ADCK3 (Homo sapiens, UniProt Q8NI60)
T6 construct: gene COQ8A
T6 sequence (Q8NI60 whole entry): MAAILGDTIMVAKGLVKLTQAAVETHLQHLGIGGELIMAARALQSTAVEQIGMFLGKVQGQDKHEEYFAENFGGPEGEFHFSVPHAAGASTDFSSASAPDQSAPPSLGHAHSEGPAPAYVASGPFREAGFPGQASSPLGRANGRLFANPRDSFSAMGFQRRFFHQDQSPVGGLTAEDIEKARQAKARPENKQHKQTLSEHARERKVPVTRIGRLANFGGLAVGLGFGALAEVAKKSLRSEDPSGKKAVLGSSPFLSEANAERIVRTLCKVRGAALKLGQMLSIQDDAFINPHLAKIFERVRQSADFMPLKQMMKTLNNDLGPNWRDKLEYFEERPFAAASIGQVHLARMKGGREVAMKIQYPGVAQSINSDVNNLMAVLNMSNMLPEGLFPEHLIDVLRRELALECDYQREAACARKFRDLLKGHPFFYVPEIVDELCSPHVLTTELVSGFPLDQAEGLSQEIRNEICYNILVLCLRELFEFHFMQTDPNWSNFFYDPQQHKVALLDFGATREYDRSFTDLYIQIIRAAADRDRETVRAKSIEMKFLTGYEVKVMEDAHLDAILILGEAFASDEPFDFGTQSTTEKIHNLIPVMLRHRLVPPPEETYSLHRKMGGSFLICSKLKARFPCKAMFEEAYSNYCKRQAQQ
Summary of the method: as §1

[17] = target: ERBB3 (Homo sapiens, UniProt P21860)
Summary of the method: as §1

[18] = target: PIK3CA(I800L) (Homo sapiens, UniProt P42336, I800L)
PIK3CA(I800L), sequence (P42336 whole entry I800L): as the sequence (P42336 whole entry C420R) above, with R420C, I800L counted along it
Summary of the method: as §1

[19] = target: INSRR (Homo sapiens, UniProt P14616)
INSRR, sequence (P14616 whole entry): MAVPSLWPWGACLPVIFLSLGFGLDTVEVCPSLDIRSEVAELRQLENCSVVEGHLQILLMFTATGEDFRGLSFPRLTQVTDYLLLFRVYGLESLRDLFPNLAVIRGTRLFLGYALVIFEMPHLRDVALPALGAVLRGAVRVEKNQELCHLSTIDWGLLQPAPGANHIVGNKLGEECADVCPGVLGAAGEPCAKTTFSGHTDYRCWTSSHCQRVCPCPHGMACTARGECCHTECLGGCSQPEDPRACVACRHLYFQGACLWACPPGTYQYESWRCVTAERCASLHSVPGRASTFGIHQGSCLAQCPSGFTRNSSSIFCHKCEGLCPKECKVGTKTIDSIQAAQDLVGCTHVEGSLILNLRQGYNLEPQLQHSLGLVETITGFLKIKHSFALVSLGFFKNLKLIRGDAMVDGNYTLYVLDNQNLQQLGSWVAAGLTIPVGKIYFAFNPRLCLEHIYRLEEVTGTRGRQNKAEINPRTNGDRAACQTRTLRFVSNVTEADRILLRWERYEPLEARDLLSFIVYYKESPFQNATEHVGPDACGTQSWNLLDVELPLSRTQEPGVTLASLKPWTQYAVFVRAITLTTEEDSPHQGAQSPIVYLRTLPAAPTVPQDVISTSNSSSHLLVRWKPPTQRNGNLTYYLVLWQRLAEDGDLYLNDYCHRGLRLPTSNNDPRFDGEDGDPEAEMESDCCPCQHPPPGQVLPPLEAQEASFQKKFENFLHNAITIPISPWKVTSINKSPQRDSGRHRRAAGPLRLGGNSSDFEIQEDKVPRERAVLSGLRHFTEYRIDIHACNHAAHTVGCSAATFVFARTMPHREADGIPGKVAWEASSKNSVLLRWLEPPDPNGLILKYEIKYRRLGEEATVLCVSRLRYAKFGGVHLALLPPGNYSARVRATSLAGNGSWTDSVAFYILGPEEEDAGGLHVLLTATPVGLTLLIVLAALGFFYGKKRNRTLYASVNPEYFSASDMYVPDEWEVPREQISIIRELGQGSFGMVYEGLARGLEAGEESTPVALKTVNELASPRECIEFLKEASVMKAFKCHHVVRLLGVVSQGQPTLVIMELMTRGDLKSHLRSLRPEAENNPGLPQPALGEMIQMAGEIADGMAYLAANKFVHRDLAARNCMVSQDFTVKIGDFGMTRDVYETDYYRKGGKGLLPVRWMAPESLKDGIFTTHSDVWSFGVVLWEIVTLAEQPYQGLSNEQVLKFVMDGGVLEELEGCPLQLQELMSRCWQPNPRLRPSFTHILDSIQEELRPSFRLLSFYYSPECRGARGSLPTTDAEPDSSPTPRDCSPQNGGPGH
Summary of the method: as §1

[20] = target: HIPK4 (Homo sapiens, UniProt Q8NE63)
Summary of the method: as §1

[21] = target: MARK2 (Homo sapiens, UniProt Q7KZI7)
Summary of the method: as §1

[22] = target: T7, PFTAIRE2 (Homo sapiens, UniProt Q96Q40)
T7 construct: gene CDK15
Summary of the method: as §1

[23] = target: CSNK1D (Homo sapiens, UniProt P48730)
Summary of the method: as §1

[24] = target: ACVR2A (Homo sapiens, UniProt P27037)
Summary of the method: as §1

CNS(=O)(=O)c1ccc(N(C)C)c(Nc2nc(C)nc3cc(OC)c(OC)cc23)c1 [compound 15, 3-((6,7-dimethoxy-2-methylquinazolin-4-yl)amino)-4-(dimethylamino)-N-methylbenzenesulfonamide]
inhibition at 1 µM [1]: 4% | inhibition at 1 µM [2]: 22% | inhibition at 1 µM [3]: 11% | inhibition at 1 µM [4]: 0% | inhibition at 1 µM [5]: 0% | inhibition at 1 µM [6]: 0% | inhibition at 1 µM [7]: 0% | inhibition at 1 µM [8]: 23% | inhibition at 1 µM [9]: 0% | inhibition at 1 µM [10]: 26% | inhibition at 1 µM [11]: 7% | inhibition at 1 µM [12]: 0% | inhibition at 1 µM [13]: 33% | inhibition at 1 µM [14]: 26% | inhibition at 1 µM [15]: 13% | inhibition at 1 µM [16]: 9% | inhibition at 1 µM [17]: 16% | inhibition at 1 µM [18]: 38% | inhibition at 1 µM [19]: 22% | inhibition at 1 µM [20]: 0% | inhibition at 1 µM [21]: 0% | inhibition at 1 µM [22]: 5% | inhibition at 1 µM [23]: 0% | inhibition at 1 µM [24]: 0%
